Laboratory results published in US6337317B1, “Antimicrobial peptides and methods of use thereof” (priority 2000, dated 2002).
Where a SMILES comes first, the peptide text is derived from it.

Assays:
[1] = test system: S. aureus SAP0017; format: cell-based, Staphylococcus aureus
Experimental: (§1) The biological activity of the peptides can be determined by standard methods known to those of skill in the art, such as a “minimal inhibitory concentration” (MIC) assay (see Wu and Hancock (1999) J. Biol Chem. 274:29-35 and Examples section). A MIC assay allows the determination of the lowest concentration of peptide that inhibits the multiplication and growth of mircoorganisms. Changes in the microorganism population are assessed by measuring the optical density (OD) of the population in broth or medium. Peptide MIC's can be determined for a variety of micoorganisms under a variety of conditions. Another assay for the biological activity of the peptides is a “fractional inhibitory concentration” (FIC) assay. This assay is especially useful for determining synergistic effects between the peptides of the invention, and between invention peptides and other compounds such as known antibiotics. A FIC assay employs the strategy of a MIC assay with additional variable(s), e.g., known antibiotics. […] The FIC is calculated by looking at the impact of an antibiotic on the MIC of the peptide and the reciprocal relationship. […] As used herein, FIC can be determined as follows: […]
(§2) MIC Assay p The minimum inhibitory concentrations of (MIC) of several invention peptides were determined using methods described elsewhere (Wu and Hancock, (1999) J. Biol Chem. 274:29-35). […]

[2] = test system: S. aureus R147; format: cell-based, Staphylococcus aureus
Experimental: as §1, §2

[3] = test system: E. coli 0111:B4 LPS induced production of TNF-α in RAW macrophages; experiment: Reduction of LPS-induced TNF-α in RAW 264.7 macrophages (ELISA); format: cell-based, murine; conditions: peptide 20 μg/ml; LPS 100 ng/ml; RAW 264.7; 6 hours
Experimental: The ability of invention peptides to reduce LPS-induced tumor necrosis factor (TNF) production was tested in an in vitro assay. The murine macrophage cell line RAW 264.7 was obtained from American Type Culture Collection (Manassas, Va.) and grown in DMEM medium supplemented with 10% fetal calf serum. The cells were plated at a density of 10^6 cells/well in 24 well plates, incubated overnight, then washed with fresh medium. E. coli 0111 :B4 (100 ng/ml) was added at time 0 to RAW macrophages. Invention peptides […]/m were added at time 0, 30 and 60 minutes and the cells were stimulated for 6 hours. Levels of TNF and interleukin-6 (IL-6) were measured after 6 hours.

[4] = test system: E. coli DC2; experiment: Cytoplasmic membrane depolarization, diSC35 assay; format: cell-based, Escherichia coli; conditions: 0.25 μg/ml peptide
Experimental: The arrowhead indicates the time at which 0.25 μg/ml peptide was added. PV5: SEQ ID NO:11; PV7: SEQ ID NO:4; and PV8: SEQ ID NO:3.
The cytoplasmic membrane depolarization activity of the peptides was determined (Wu and Hancock (1999) J. Biol. Chem. 274:29-35) using the membrane potential sensitive dye 3,3-dipropylthiacarbocyanine diSC35 (28) and E. coli DC2. Bacterial cells in mid-log phase were centrifuged, washed in 5 mM HEPES, pH 7.8, and resuspended in the same buffer to an OD600 of 0.05. A stock solution of diSC35 was added to a final concentration of 0.4 μM and quenching was allowed to occur at room temperature for 20-30 min. Then KCl was added to the cell suspension to a final concentration of 100 mM to equilibrate the cytoplasmic and external K^+ concentrations. A 2-mL cell suspension was placed in a 1 cm cuvette and the desired concentration of tested peptide was added. Changes in fluorescence due to the disruption of the membrane potential in the cytoplasmic membrane were continuously recorded using a Perkin-Elmer model 650-10S spectrofluorimeter at an excitation wavelength of 622 nm and an emission wavelength of 670 nm. The concentration of peptide leading to a 50% of maximal increase in NPN uptake was recorded as the P50.

## CC(C)[C@@H]1NC(=O)[C@H](CCCNC(=N)N)NC(=O)[C@H](Cc2ccccc2)NC(=O)[C@@H](NC(=O)[C@H](Cc2c[nH]c3ccccc23)NC(=O)[C@H](CCCNC(=N)N)NC(=O)[C@@H](N)CCCNC(=N)N)CSSC[C@@H](C(=O)N[C@@H](CCCNC(=N)N)C(N)=O)NC(=O)[C@H](CCCCN)NC(=O)[C@H](CCCNC(=N)N)NC(=O)[C@H](Cc2ccc(O)cc2)NC(=O)[C@@H]2CSSC[C@H](NC1=O)C(=O)N[C@@H](Cc1ccc(O)cc1)C(=O)N[C@@H](CCCNC(=N)N)C(=O)NCC(=O)N[C@@H](Cc1ccccc1)C(=O)N2 [Polyphemusin I] (HELM PEPTIDE1{R.R.W.C.F.R.V.C.Y.R.G.F.C.Y.R.K.C.R.[am]}$PEPTIDE1,PEPTIDE1,4:R3-17:R3|PEPTIDE1,PEPTIDE1,8:R3-13:R3$$$V2.0; N-terminus and C-terminus assumed)
[1]
  MIC: 0.5 µg/mL
[2]
  MIC: 0.5 µg/mL
[3]
  Inhibition of TNF-α (%): 83 ± 6%
[4]
  time to dissipation of the cytoplasmic membrane potential: ≤ 5 min
